Results: patent publication US8758816B2, “Compositions comprising azelastine and methods of use thereof” (priority 2004, dated 2014)
Counter-ions that a name gives are not always drawn.

System: patients with seasonal allergic rhinitis (SAR)
Assay: MP 428 two-week randomized double-blind study: Total Nasal Symptom Score (TNSS), change from baseline
Assay type: in vivo, human
Set-up: key to Change from Baseline in AM TNSS, Mean / Change from Baseline in AM TNSS, LS Mean / Change from Baseline in AM TNSS, Median: TNSS sum of 4 symptoms each 0-3 (0=none, 3=severe); change from baseline
Procedure: A two-week, randomized, double-blind study, which evaluated the effects of the co-administration of ASTELIN® (azelastine hydrochloride (HCl)) and FLONASE® (fluticasone propionate) compared to either product alone in patients with seasonal allergic rhinitis (SAR) was conducted during the 2006 Texas mountain cedar season. After a 5-day placebo lead-in period, 151 patients with moderate-to-severe allergic rhinitis symptoms were randomized to either: (1) (49 total patients) ASTELIN® (azelastine hydrochloride (HCl)) plus placebo saline nasal spray 2 sprays per nostril, 15 minutes apart, twice daily (AM & PM); (2) (50 total patients) FLONASE® (fluticasone propionate) plus placebo saline nasal spray, 2 sprays per nostril, 15 minutes apart, once daily (AM) and two sessions of placebo saline nasal spray, 2 sprays per nostril, 15 minutes apart (PM); or (3) (52 total patients) the co-administration of ASTELIN® (azelastine hydrochloride (HCl)) 2 sprays per nostril plus FLONASE® (fluticasone propionate) 2 sprays per nostril (AM), 15 minutes apart, and ASTELIN® (azelastine hydrochloride (HCl)) 2 sprays per nostril plus placebo saline nasal spray, 15 minutes apart, (PM) for a 2-week double-blind treatment period.
The primary efficacy variable was the change from baseline in the Total Nasal Symptom Score (TNSS), which comprised sneezing, itchy nose, runny nose, and nasal congestion (individual symptoms scores were assigned a value between 0 and 3, where 0=no symptoms and 3=severe symptoms). This study was not statistically designed to assess the differences between ASTELIN® and FLONASE®.

[1] = Day 5, Intent-to-Treat Population
[2] = Day 6, Intent-to-Treat Population
[3] = Day 7, Intent-to-Treat Population
[4] = Day 8, Intent-to-Treat Population
[5] = Day 9, Intent-to-Treat Population

CN1CCCC(n2nc(Cc3ccc(Cl)cc3)c3ccccc3c2=O)CC1 (racemic) [Azelastine, (±)-1-(2H)-phthalazinone, 4-[(4-chlorophenyl)methyl]-2-(hexahydro-1-methyl-1H-azepin-4-yl)-, mono-hydrochloride]
Percent Change from Baseline in AM and PM Combined TNSS, Mean [1]: −23.15%
Percent Change from Baseline in AM and PM Combined TNSS, Median [1]: −18.64%
Percent Change from Baseline in PM TNSS, LS Mean [1]: −22.87%
Percent Change from Baseline in PM TNSS, Mean [1]: −22.50%
Percent Change from Baseline in PM TNSS, Median [1]: −13.04%
Change from Baseline in AM and PM Combined TNSS, LS Mean (Day 5, Intent-to-Treat Population, ANCOVA model): −4.46
Change from Baseline in AM and PM Combined TNSS, LS Mean (Day 5, Per-Protocol Population): −4.43
Change from Baseline in AM and PM Combined TNSS, Mean (Day 5, Per-Protocol Population): −4.48
Change from Baseline in AM and PM Combined TNSS, Median (Day 5, Per-Protocol Population): −3.67
Percent Change from Baseline in AM and PM Combined TNSS, LS Mean (Day 5, Per-Protocol Population): −23.17%
Percent Change from Baseline in AM and PM Combined TNSS, Mean (Day 5, Per-Protocol Population): −23.15%
Percent Change from Baseline in AM and PM Combined TNSS, Median (Day 5, Per-Protocol Population): −18.64%
Change from Baseline in AM TNSS, LS Mean [2]: −2.01
Change from Baseline in AM TNSS, Mean [2]: −2.01
Change from Baseline in AM TNSS, Median [2]: −2.00
Change from Baseline in AM and PM Combined TNSS, Mean [2]: −4.44
Change from Baseline in AM and PM Combined TNSS, Median [2]: −3.70
Change from Baseline in PM TNSS, LS Mean [2]: −2.38
Change from Baseline in PM TNSS, Mean [2]: −2.43
Change from Baseline in PM TNSS, Median [2]: −2.00
Percent Change from Baseline in AM TNSS, LS Mean [2]: −21.14%
Percent Change from Baseline in AM TNSS, Mean [2]: −21.35%
Percent Change from Baseline in AM TNSS, Median [2]: −16.67%
Percent Change from Baseline in AM and PM Combined TNSS, LS Mean [2]: −23.15%
Percent Change from Baseline in AM and PM Combined TNSS, Mean [2]: −23.13%
Percent Change from Baseline in AM and PM Combined TNSS, Median [2]: −18.78%
Percent Change from Baseline in PM TNSS, LS Mean [2]: −25.18%
Percent Change from Baseline in PM TNSS, Mean [2]: −24.82%
Percent Change from Baseline in PM TNSS, Median [2]: −20.45%
Change from Baseline in AM and PM Combined TNSS, LS Mean (Day 6, Intent-to-Treat Population, ANCOVA model): −4.40
Change from Baseline in AM and PM Combined TNSS, LS Mean (Day 6, Per-Protocol Population): −4.38
Change from Baseline in AM and PM Combined TNSS, Mean (Day 6, Per-Protocol Population): −4.44
Change from Baseline in AM and PM Combined TNSS, Median (Day 6, Per-Protocol Population): −3.70
Percent Change from Baseline in AM and PM Combined TNSS, LS Mean (Day 6, Per-Protocol Population): −23.16%
Percent Change from Baseline in AM and PM Combined TNSS, Mean (Day 6, Per-Protocol Population): −23.13%
Percent Change from Baseline in AM and PM Combined TNSS, Median (Day 6, Per-Protocol Population): −18.78%
Change from Baseline in AM TNSS, LS Mean [3]: −2.52
Change from Baseline in AM TNSS, Mean [3]: −2.52
Change from Baseline in AM TNSS, Median [3]: −2.20
Change from Baseline in AM and PM Combined TNSS, Mean [3]: −5.09
Change from Baseline in AM and PM Combined TNSS, Median [3]: −4.67
Change from Baseline in PM TNSS, LS Mean [3]: −2.54
Change from Baseline in PM TNSS, Mean [3]: −2.57
Change from Baseline in PM TNSS, Median [3]: −2.25
Percent Change from Baseline in AM TNSS, LS Mean [3]: −26.26%
Percent Change from Baseline in AM TNSS, Mean [3]: −26.58%
Percent Change from Baseline in AM TNSS, Median [3]: −25.00%
Percent Change from Baseline in AM and PM Combined TNSS, LS Mean [3]: −26.40%
Percent Change from Baseline in AM and PM Combined TNSS, Mean [3]: −26.52%
Percent Change from Baseline in AM and PM Combined TNSS, Median [3]: −23.31%
Percent Change from Baseline in PM TNSS, LS Mean [3]: −26.39%
Percent Change from Baseline in PM TNSS, Mean [3]: −26.20%
Percent Change from Baseline in PM TNSS, Median [3]: −23.81%
Change from Baseline in AM and PM Combined TNSS, LS Mean (Day 7, Intent-to-Treat Population, ANCOVA model): −5.05
Change from Baseline in AM and PM Combined TNSS, LS Mean (Day 7, Per-Protocol Population): −5.01
Change from Baseline in AM and PM Combined TNSS, Mean (Day 7, Per-Protocol Population): −5.09
Change from Baseline in AM and PM Combined TNSS, Median (Day 7, Per-Protocol Population): −4.67
Percent Change from Baseline in AM and PM Combined TNSS, LS Mean (Day 7, Per-Protocol Population): −26.32%
Percent Change from Baseline in AM and PM Combined TNSS, Mean (Day 7, Per-Protocol Population): −26.52%
Percent Change from Baseline in AM and PM Combined TNSS, Median (Day 7, Per-Protocol Population): −23.31%
Change from Baseline in AM TNSS, LS Mean [4]: −2.65
Change from Baseline in AM TNSS, Mean [4]: −2.62
Change from Baseline in AM TNSS, Median [4]: −2.50
Change from Baseline in AM and PM Combined TNSS, Mean [4]: −5.38
Change from Baseline in AM and PM Combined TNSS, Median [4]: −5.00
Change from Baseline in PM TNSS, LS Mean [4]: −2.69
Change from Baseline in PM TNSS, Mean [4]: −2.76
Change from Baseline in PM TNSS, Median [4]: −2.75
Percent Change from Baseline in AM TNSS, LS Mean [4]: −27.73%
Percent Change from Baseline in AM TNSS, Mean [4]: −27.83%
Percent Change from Baseline in AM TNSS, Median [4]: −25.00%
Percent Change from Baseline in AM and PM Combined TNSS, LS Mean [4]: −28.22%
Percent Change from Baseline in AM and PM Combined TNSS, Mean [4]: −28.13%
Percent Change from Baseline in AM and PM Combined TNSS, Median [4]: −23.73%
Percent Change from Baseline in PM TNSS, LS Mean [4]: −27.94%
Percent Change from Baseline in PM TNSS, Mean [4]: −28.17%
Percent Change from Baseline in PM TNSS, Median [4]: −27.27%
Change from Baseline in AM and PM Combined TNSS, LS Mean (Day 8, Intent-to-Treat Population, ANCOVA model): −5.37
Change from Baseline in AM and PM Combined TNSS, LS Mean (Day 8, Per-Protocol Population): −5.33
Change from Baseline in AM and PM Combined TNSS, Mean (Day 8, Per-Protocol Population): −5.38
Change from Baseline in AM and PM Combined TNSS, Median (Day 8, Per-Protocol Population): −5.00
Percent Change from Baseline in AM and PM Combined TNSS, LS Mean (Day 8, Per-Protocol Population): −28.14%
Percent Change from Baseline in AM and PM Combined TNSS, Mean (Day 8, Per-Protocol Population): −28.13%
Percent Change from Baseline in AM and PM Combined TNSS, Median (Day 8, Per-Protocol Population): −23.73%
Change from Baseline in AM TNSS, LS Mean [5]: −2.57
Change from Baseline in AM TNSS, Mean [5]: −2.52
